Data reported in publication PMC4744570 (Pharmaceutical research, 2015).

Tests used:
[1] = system: P. aeruginosa; conditions: cited from earlier work
[2] = parent drug; cited from earlier work
[3] = Lung pharmacokinetic profiling in guinea pigs after intratracheal instillation; format: in vivo, guinea pigs (Cavia porcellus); conditions: male, guinea pig, 1.6 mg

Cmax ([3]; inhaled or intranasal): > 70000 ng/mL | concentration at 3 h ([3]; other: intratracheal): < 1000 ng/mL | concentration at 9 h ([3]; other: intratracheal): 12 ng/mL | concentration at 12 h ([3]; other: intratracheal): 10 ng/mL
Structure (SMILES): C[C@@H](O)[C@H]1C(=O)N2C(C(=O)O)=C(S[C@@H]3CN[C@H](C(=O)N(C)C)C3)[C@H](C)[C@H]12 [meropenem]
MIC90 [1]: 8,000 ng/mL | solubility (S) in water [2]: > 50 mg/mL
